From patent US9423396B2, “Bodipy structure fluorescence probes for diverse biological applications” (National University of Singapore, priority 2011, dated 2016)

Test: Spectroscopic measurements (absorption, emission, quantum yield, extinction coefficient)
Type: physicochemical
[1] = BDNCA library, difference emission minus absorption
[2] = BDNCA library, extinction coefficient; in M-1 cm-1 (unit assumed)
[3] = BDNCA library, fluorescence emission
[4] = absorption maximum, BDNCA library
[5] = difference of emission and absorption maxima
[6] = extinction coefficient, BDNCA library; in M-1 cm-1 (unit assumed)
[7] = fluorescence emission maximum, BDNCA library

Compound: CCOC(OCC)c1ccc(/C=C/C2=[N+]3C(=C(c4ccc(NC(=O)CCl)cc4)c4cccn4[B-]3(F)F)C(C)=C2)cc1 [BDNCA-49]
- Qunt. Yield (BDNCA library): 0.03
- Abs (BDNCA library, absorption): 564 nm
- Flu-Abs [1]: 17
- ε [2]: 20,046
- Flu [3]: 581

Compound: COc1cc(/C=C/C2=[N+]3C(=C(c4ccc(NC(=O)CCl)cc4)c4cccn4[B-]3(F)F)C(C)=C2)c(OCc2ccccc2)cc1OC [BDNCA-223]
- Qunt. Yield (BDNCA library): weak
- Abs (BDNCA library, absorption): 583 nm
- ε [2]: 59,863
- Flu [3]: weak

Compound: COc1cc(O)c(/C=C/C2=[N+]3C(=C(c4ccc(NC(=O)CCl)cc4)c4cccn4[B-]3(F)F)C(C)=C2)c(OC)c1 [BDNCA-366]
- Abs [4]: 579 nm
- Flu-Abs [5]: 50
- ε [6]: 38,444
- Flu [7]: 629
- Qunt. Yield (quantum yield, BDNCA library): 0.02

Compound: COc1ccc(/C=C/C2=[N+]3C(=C(c4ccc(NC(=O)CCl)cc4)c4cccn4[B-]3(F)F)C(C)=C2)cc1OCc1ccccc1 [BDNCA-7]
- Qunt. Yield (BDNCA library): 0.19
- Abs (BDNCA library, absorption): 570 nm
- Flu-Abs [1]: 46
- ε [2]: 87,872
- Flu [3]: 616

Compound: CC1=CC(/C=C/c2ccc(-c3cccc(Cl)c3)o2)=[N+]2C1=C(c1ccc(NC(=O)CCl)cc1)c1cccn1[B-]2(F)F [BDNCA-284]
- Qunt. Yield (BDNCA library): 0.04
- Abs (BDNCA library, absorption): 595 nm
- Flu-Abs [1]: 42
- ε [2]: 31,579
- Flu [3]: 637

Compound: CC1=CC(/C=C/c2cccc(Oc3ccc(C(C)(C)C)cc3)c2)=[N+]2C1=C(c1ccc(NC(=O)CCl)cc1)c1cccn1[B-]2(F)F [BDNCA-435]
- Abs [4]: 556 nm
- Flu-Abs [5]: 20
- ε [6]: 61,510
- Flu [7]: 576
- Qunt. Yield (quantum yield, BDNCA library): 0.13

Compound: CC1=CC(/C=C/c2cccc(C)c2C)=[N+]2C1=C(c1ccc(NC(=O)CCl)cc1)c1cccn1[B-]2(F)F [BDNCA-349]
- Abs [4]: 556 nm
- Flu-Abs [5]: 22
- ε [6]: 36,247
- Flu [7]: 578
- Qunt. Yield (quantum yield, BDNCA library): 0.03

Compound: CC1=CC(/C=C/c2c(C)nn(C)c2C)=[N+]2C1=C(c1ccc(NC(=O)CCl)cc1)c1cccn1[B-]2(F)F [BDNCA-430]
- Abs [4]: 567 nm
- Flu-Abs [5]: 34
- ε [6]: 37,895
- Flu [7]: 601
- Qunt. Yield (quantum yield, BDNCA library): 0.09

Compound: COc1ccc(/C=C/C2=[N+]3C(=C(c4ccc(NC(=O)CCl)cc4)c4cccn4[B-]3(F)F)C(C)=C2)cc1[N+](=O)[O-] [BDNCA-350]
- Abs [4]: 560 nm
- Flu-Abs [5]: 21
- ε [6]: 34,874
- Flu [7]: 581
- Qunt. Yield (quantum yield, BDNCA library): 0.07

Compound: Cc1cc(/C=C/c2cc(Cl)ccc2Cl)n2c1C(c1ccc(NC(=O)CCl)cc1)=C1C=CC=[N+]1[B-]2(F)F [BDNCA-407]
- Abs [4]: 555 nm
- Flu-Abs [5]: 20
- ε [6]: 42,288
- Flu [7]: 575
- Qunt. Yield (quantum yield, BDNCA library): 0.07

Compound: CC1=CC(/C=C/c2ccc(-c3ccccc3)c(F)c2)=[N+]2C1=C(c1ccc(NC(=O)CCl)cc1)c1cccn1[B-]2(F)F [BDNCA-425]
- Abs [4]: 562 nm
- Flu-Abs [5]: 21
- ε [6]: 46,957
- Flu [7]: 583
- Qunt. Yield (quantum yield, BDNCA library): 0.11

Compound: COC(=O)c1ccc(/C=C/C2=[N+]3C(=C(c4ccc(NC(=O)CCl)cc4)c4cccn4[B-]3(F)F)C(C)=C2)cc1 [BDNCA-219]
- Qunt. Yield (BDNCA library): 0.16
- Abs (BDNCA library, absorption): 560 nm
- Flu-Abs [1]: 21
- ε [2]: 73,043
- Flu [3]: 581

Compound: CC1=CC(/C=C/c2c(C)c(C)c(C)c(C)c2C)=[N+]2C1=C(c1ccc(NC(=O)CCl)cc1)c1cccn1[B-]2(F)F [BDNCA-67]
- Qunt. Yield (BDNCA library): 0.12
- Abs (BDNCA library, absorption): 542 nm
- Flu-Abs [1]: 40
- ε [2]: 36,522
- Flu [3]: 582

Compound: COc1ccc(/C=C/C2=[N+]3C(=C(c4ccc(NC(=O)CCl)cc4)c4cccn4[B-]3(F)F)C(C)=C2)c(OC)c1C [BDNCA-347]
- Abs [4]: 569 nm
- Flu-Abs [5]: 35
- ε [6]: 34,874
- Flu [7]: 604
- Qunt. Yield (quantum yield, BDNCA library): 0.08

Compound: COc1ccc(/C=C/C2=[N+]3C(=C(c4ccc(NC(=O)CCl)cc4)c4cccn4[B-]3(F)F)C(C)=C2)cc1Cl [BDNCA-274]
- Qunt. Yield (BDNCA library): 0.15
- Abs (BDNCA library, absorption): 563 nm
- Flu-Abs [1]: 27
- ε [2]: 71,670
- Flu [3]: 590

Compound: COc1ccc(/C=C/c2cc(C)c3n2[B-](F)(F)[N+]2=CC=CC2=C3c2ccc(NC(=O)CCl)cc2)c(O)c1 [BDNCA-192]
- Qunt. Yield (BDNCA library): 0.03
- Abs (BDNCA library, absorption): 577 nm
- Flu-Abs [1]: 53
- ε [2]: 21,693
- Flu [3]: 630

Compound: CC1=CC(/C=C/c2ccc3ccc4cccc5ccc2c3c45)=[N+]2C1=C(c1ccc(NC(=O)CCl)cc1)c1cccn1[B-]2(F)F [BDNCA-103]
- Qunt. Yield (BDNCA library): 0.04
- Abs (BDNCA library, absorption): 598 nm
- Flu-Abs [1]: 82
- ε [2]: 28,558
- Flu [3]: 680

Compound: CC1=CC(/C=C/C=C(c2ccccc2)c2ccccc2)=[N+]2C1=C(c1ccc(NC(=O)CCl)cc1)c1cccn1[B-]2(F)F [BDNCA-85]
- Qunt. Yield (BDNCA library): 0.08
- Abs (BDNCA library, absorption): 583 nm
- Flu-Abs [1]: 31
- ε [2]: 49,977
- Flu [3]: 614

Compound: CC1=CC(/C=C/c2ccc(Cl)c(Cl)c2)=[N+]2C1=C(c1ccc(NC(=O)CCl)cc1)c1cccn1[B-]2(F)F [BDNCA-182]
- Qunt. Yield (BDNCA library): 0.08
- Abs (BDNCA library, absorption): 557 nm
- Flu-Abs [1]: 18
- ε [2]: 37,620
- Flu [3]: 575

Compound: CC1=CC(/C=C/c2csc3ccccc23)=[N+]2C1=C(c1ccc(NC(=O)CCl)cc1)c1cccn1[B-]2(F)F [BDNCA-37]
- Qunt. Yield (BDNCA library): 0.14
- Abs (BDNCA library, absorption): 567 nm
- Flu-Abs [1]: 33
- ε [2]: 71,121
- Flu [3]: 600

Compound: C=CCOc1ccc(/C=C/C2=[N+]3C(=C(c4ccc(NC(=O)CCl)cc4)c4cccn4[B-]3(F)F)C(C)=C2)cc1 [BDNCA-48]
- Qunt. Yield (BDNCA library): 0.07
- Abs (BDNCA library, absorption): 566 nm
- Flu-Abs [1]: 31
- ε [2]: 44,211
- Flu [3]: 597

Compound: COc1cc(C=CC=CC2=[N+]3C(=C(c4ccc(NC(=O)CCl)cc4)c4cccn4[B-]3(F)F)C(C)=C2)ccc1OC(C)=O [BDNCA-44]
- Qunt. Yield (BDNCA library): weak
- Abs (BDNCA library, absorption): 580 nm
- ε [2]: 12,632
- Flu [3]: weak

Compound: CCCCc1ccc(/C=C/C2=[N+]3C(=C(c4ccc(NC(=O)CCl)cc4)c4cccn4[B-]3(F)F)C(C)=C2)cc1 [BDNCA-263]
- Qunt. Yield (BDNCA library): 0.17
- Abs (BDNCA library, absorption): 559 nm
- Flu-Abs [1]: 23
- ε [2]: 124,394
- Flu [3]: 582

Compound: Cc1ccc(/C=C/c2cc(C)c3n2[B-](F)(F)[N+]2=CC=CC2=C3c2ccc(NC(=O)CCl)cc2)cc1[N+](=O)[O-] [BDNCA-255]
- Qunt. Yield (BDNCA library): 0.10
- Abs (BDNCA library, absorption): 556 nm
- Flu-Abs [1]: 19
- ε [2]: 62,059
- Flu [3]: 575

Compound: CC1=CC(/C=C/c2c(Br)ccc3c2OCO3)=[N+]2C1=C(c1ccc(NC(=O)CCl)cc1)c1cccn1[B-]2(F)F [BDNCA-262]
- Qunt. Yield (BDNCA library): 0.07
- Abs (BDNCA library, absorption): 561 nm
- Flu-Abs [1]: 21
- ε [2]: 68,924
- Flu [3]: 582

Compound: CC1=CC(/C=C/c2ccc(Cl)c(F)c2)=[N+]2C1=C(c1ccc(NC(=O)CCl)cc1)c1cccn1[B-]2(F)F [BDNCA-437]
- Abs [4]: 556 nm
- Flu-Abs [5]: 19
- ε [6]: 47,506
- Flu [7]: 575
- Qunt. Yield (quantum yield, BDNCA library): 0.09

Compound: COc1ccccc1/C=C/c1cc(C)c2n1[B-](F)(F)[N+]1=CC=CC1=C2c1ccc(NC(=O)CCl)cc1 [BDNCA-198]
- Qunt. Yield (BDNCA library): 0.15
- Abs (BDNCA library, absorption): 561 nm
- Flu-Abs [1]: 26
- ε [2]: 76,064
- Flu [3]: 587

Compound: CCOc1ccc(/C=C/C2=[N+]3C(=C(c4ccc(NC(=O)CCl)cc4)c4cccn4[B-]3(F)F)C(C)=C2)cc1OCC [BDNCA-53]
- Qunt. Yield (BDNCA library): 0.06
- Abs (BDNCA library, absorption): 570 nm
- Flu-Abs [1]: 51
- ε [2]: 31,579
- Flu [3]: 621

Compound: CC1=CC(/C=C/c2ncc[nH]2)=[N+]2C1=C(c1ccc(NC(=O)CCl)cc1)c1cccn1[B-]2(F)F [BDNCA-353]
- Abs [4]: 570 nm
- Flu-Abs [5]: 44
- ε [6]: 15,652
- Flu [7]: 614
- Qunt. Yield (quantum yield, BDNCA library): 0.01

Compound: CC1=CC(/C=C/c2ccc(OCc3ccccc3)cc2)=[N+]2C1=C(c1ccc(NC(=O)CCl)cc1)c1cccn1[B-]2(F)F [BDNCA-90]
- Qunt. Yield (BDNCA library): 0.04
- Abs (BDNCA library, absorption): 563 nm
- Flu-Abs [1]: 30
- ε [2]: 20,046
- Flu [3]: 593

Compound: Cc1cc(/C=C/c2ccc(N(C)CCO)cc2)n2c1C(c1ccc(NC(=O)CCl)cc1)=C1C=CC=[N+]1[B-]2(F)F [BDNCA-91]
- Qunt. Yield (BDNCA library): weak
- Abs (BDNCA library, absorption): 559 nm
- ε [2]: 34,050
- Flu [3]: weak

Compound: CC1=CC(/C=C/c2ccc(C)cc2C)=[N+]2C1=C(c1ccc(NC(=O)CCl)cc1)c1cccn1[B-]2(F)F [BDNCA-370]
- Abs [4]: 507 nm
- Flu-Abs [5]: 78
- ε [6]: 34,050
- Flu [7]: 585
- Qunt. Yield (quantum yield, BDNCA library): 0.08

Compound: CC1=CC(/C=C/c2c3ccccc3cc3ccccc23)=[N+]2C1=C(c1ccc(NC(=O)CCl)cc1)c1cccn1[B-]2(F)F [BDNCA-6]
- Qunt. Yield (BDNCA library): weak
- Abs (BDNCA library, absorption): 536 nm
- ε [2]: 41,465
- Flu [3]: weak

Compound: CC1=CC(/C=C/c2ccc(C(C)C)cc2)=[N+]2C1=C(c1ccc(NC(=O)CCl)cc1)c1cccn1[B-]2(F)F [BDNCA-19]
- Qunt. Yield (BDNCA library): 0.13
- Abs (BDNCA library, absorption): 558 nm
- Flu-Abs [1]: 22
- ε [2]: 61,236
- Flu [3]: 580

Compound: COc1ccc(/C=C/C2=[N+]3C(=C(c4ccc(NC(=O)CCl)cc4)c4cccn4[B-]3(F)F)C(C)=C2)cc1O [BDNCA-132]
- Qunt. Yield (BDNCA library): 0.02
- Abs (BDNCA library, absorption): 569 nm
- Flu-Abs [1]: 30
- ε [2]: 36,796
- Flu [3]: 599

Compound: Cc1cc(/C=C/c2cc(OC(F)(F)F)ccc2O)n2c1C(c1ccc(NC(=O)CCl)cc1)=C1C=CC=[N+]1[B-]2(F)F [BDNCA-346]
- Abs [4]: 561 nm
- Flu-Abs [5]: 23
- ε [6]: 16,476
- Flu [7]: 584
- Qunt. Yield (quantum yield, BDNCA library): 0.02

Compound: CCOc1cc(/C=C/C2=[N+]3C(=C(c4ccc(NC(=O)CCl)cc4)c4cccn4[B-]3(F)F)C(C)=C2)ccc1O [BDNCA-397]
- Abs [4]: 573 nm
- Flu-Abs [5]: 40
- ε [6]: 38,444
- Flu [7]: 613
- Qunt. Yield (quantum yield, BDNCA library): 0.01
